Values joined by “and” are separate entries in the source; they are usually repeats but may differ in a detail not shown here. Equal entries are not always repeated.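 1) Cells in 96-well plates. 2) Compound, 48 h, 5 concentrations. 3) Linear interpolation between surrounding doses. 4) Unreached endpoint = highest concentration. Abbreviation: GI50, concentration required for 50% inhibition of growth. Definition used: TGI = concentration required for complete inhibition of growth.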
What was measured:
Experiment in all cases: NCI tumour cell line growth inhibition, 48 h
SN12C renal = tested on: SN12C renal
HCT-15 colon = tested on: HCT-15 colon
U251 CNS = tested on: U251 CNS
SNB-75 CNS = tested on: SNB-75 CNS
SK-MEL-28 melanoma = tested on: SK-MEL-28 melanoma
OVCAR-3 ovarian = tested on: OVCAR-3 ovarian
CCRF-CEM leukemia = tested on: CCRF-CEM leukemia
A498 renal = tested on: A498 renal
MDA-MB-231 breast = tested on: MDA-MB-231 breast
SK-MEL-5 melanoma = tested on: SK-MEL-5 melanoma

Row | SMILES | GI50 (SN12C renal) | TGI (SN12C renal) | GI50 (HCT-15 colon) | TGI (HCT-15 colon) | GI50 (U251 CNS) | TGI (U251 CNS) | GI50 (SNB-75 CNS) | TGI (SNB-75 CNS) | GI50 (SK-MEL-28 melanoma) | TGI (SK-MEL-28 melanoma) | GI50 (OVCAR-3 ovarian) | TGI (OVCAR-3 ovarian) | GI50 (CCRF-CEM leukemia) | TGI (CCRF-CEM leukemia) | GI50 (A498 renal) | TGI (A498 renal) | GI50 (MDA-MB-231 breast) | TGI (MDA-MB-231 breast) | GI50 (SK-MEL-5 melanoma) | TGI (SK-MEL-5 melanoma)
1 | CCOC(=O)c1ccc2c(c1)nc(/C=C/c1ccc(Cl)cc1)n2-c1cc(C(C)(C)C)[nH]n1 | 7.3 µM | 81 µM | 4.26 µM | > 100 µM | 3.28 µM | 13.2 µM | 1.9 µM | 5.51 µM | 3.51 µM | 40.3 µM | 2.86 µM | 8.26 µM | 7.54 µM | > 100 µM | 3.03 µM | 41.7 µM | 2.37 µM | 7.57 µM | 3.63 µM | 28.3 µM
2 | O=C1C(Nc2ccc(Br)cc2)=C(I)C(=O)c2ncccc21 | 0.828 µM | 1.74 µM | 0.588 µM | 1.79 µM | 1.32 µM | 3.98 µM | 1.24 µM | 7 µM | 1.82 µM | 6.1 µM | 0.154 µM | 0.524 µM | 0.859 µM | 2.97 µM | 1.69 µM | 8.82 µM | 0.806 µM | 1.63 µM | 0.803 µM | 1.51 µM
3 | NS(=O)(=O)c1ccc(NCc2cnc3ccccc3n2)cc1 | – | > 100 µM | – | > 100 µM | – | > 100 µM | – | > 100 µM | – | > 100 µM | – | > 100 µM | – | > 100 µM | – | > 100 µM | – | > 100 µM | – | > 100 µM
4 | CSc1ccc2c(c1)N(CCC1CCCCN1C)c1ccccc1S2 (centres undefined) | 4.81 µM and 6.05 µM | 18.8 µM and 19.3 µM | 5.11 µM and 4.01 µM | 17.5 µM and 14.6 µM | 5.92 µM and 3.53 µM | 19.2 µM and 12.2 µM | 5.64 µM and 3.49 µM | 22.1 µM and 12.3 µM | 4.08 µM and 1.86 µM | 14.3 µM and 3.63 µM | 10.7 µM and 4.28 µM | 23.7 µM and 21.7 µM | 5.45 µM and 2.26 µM | 21.1 µM and 27.4 µM | 4.99 µM and 13.2 µM | 22.2 µM and 28.7 µM | 2.08 µM and 2.4 µM | 5.99 µM and 6.11 µM | 1.86 µM and 1.64 µM | 3.89 µM and 3.02 µM
5 | Cc1[nH]c(C(=O)Nc2ccccc2OC2CCNCC2)c(Cl)c1Cl | 0.86 µM | 1.59 µM | 0.912 µM | 1.88 µM | 0.849 µM | 1.61 µM | 0.56 µM | 1.19 µM | 1.01 µM | 1.97 µM | 0.931 µM | 1.68 µM | 1.37 µM | 3.89 µM | 2.71 µM | 9.47 µM | 0.895 µM | 1.76 µM | 0.88 µM | 1.59 µM
6 | Cc1cc2nc3ccc(=[N+](C)C)cc-3sc2cc1N | 0.821 µM and 1.15 µM | 3.7 µM and 10.6 µM and 2.52 µM | 0.384 µM and 0.63 µM | 10.9 µM and 18.6 µM and 6.98 µM | 0.357 µM and 0.381 µM | 2.55 µM and 18.9 µM and 2.11 µM | 1.43 µM and 1.34 µM | 4.03 µM and 24.5 µM and 3.37 µM | 1.64 µM and 1.65 µM | 4.65 µM and 27 µM and 3.56 µM | 0.178 µM and 0.26 µM | 0.992 µM and 9.89 µM and 1.25 µM | 0.279 µM and 0.31 µM | – | 1.33 µM and 1.93 µM | 14.2 µM and 47.2 µM and 12 µM | 0.739 µM and 0.284 µM | 7.51 µM and 7.94 µM and 1.33 µM | 0.145 µM and 0.284 µM | 0.324 µM and 1.81 µM and 1.33 µM
7 | O=C(N=Nc1c(O)[nH]c2ccccc12)c1oc2ccccc2c1CN1CCN(c2ccccc2)CC1 | 1.3 µM | 3.9 µM | 1.64 µM | 10.2 µM | 1.97 µM | 8.67 µM | 1.04 µM | 4.48 µM | 1.54 µM | 6.34 µM | 1.02 µM | 1.94 µM | 1.68 µM | > 50 µM | 1.56 µM | 8.87 µM | 1.45 µM | 4.58 µM | 1.49 µM | 5.19 µM
8 | C[C@]12CC[C@H]3[C@@H](CCC4=CC(=O)CC[C@@]43C)[C@@H]1CC[C@@H]2C(=O)COS(=O)(=O)c1ccc(Br)cc1 | – | 34.3 µM | – | 55.7 µM | – | 26.2 µM | – | 41.8 µM | – | 43.5 µM | – | 28 µM | – | 3.01 µM | – | 37.2 µM | – | 17.7 µM | – | 47.9 µM
9 | CSCC[C@H](NC(=O)[C@H](CC(C)C)NC(=O)[C@@H](Cc1ccccc1)NC(=O)CNC(=O)[C@@H](NC(=O)[C@H](C)NC(=O)[C@H](Cc1c[nH]c2ccccc12)NC(=O)[C@H](CCC(N)=O)NC(=O)[C@H](N)CC(N)=O)C(C)C)C(N)=O | – | > 12.5 µM | – | > 12.5 µM | – | > 12.5 µM | – | > 12.5 µM | – | > 12.5 µM | – | > 12.5 µM | – | > 12.5 µM | – | > 12.5 µM | – | > 12.5 µM | – | > 12.5 µM
10 | CCCC[n+]1c(/C=C\c2c(OC)cc(OC)cc2OC)ccc2ccccc21 | 0.728 µM | 5.77 µM | 2.84 µM | 12.3 µM | 0.353 µM | 3.66 µM | 1.57 µM | 8.21 µM | 0.601 µM | 2.75 µM | 0.515 µM | 2.57 µM | 1.48 µM | 18.4 µM | 0.157 µM | 2.87 µM | 1.42 µM | 4.62 µM | 0.299 µM | 1.29 µM
11 | NC(=S)N/N=C/c1ccc(N)cn1 | – | > 10 µM | – | > 10 µM | – | > 10 µM | – | > 10 µM | – | > 10 µM | – | > 10 µM | – | > 10 µM | – | > 10 µM | – | > 10 µM | – | > 6.95 µM
12 | CC[C@@H](C(=O)[C@H](C)[C@H](O)[C@@H](C)[C@H]1O[C@H]([C@@H](CC)C(=O)O)CC[C@H]1C)C1O[C@]2(C=C[C@@H](O)[C@]3(CC[C@@](C)([C@H]4CC[C@](O)(CC)[C@H](C)O4)O3)O2)[C@H](C)C[C@@H]1C (some centres undefined) | 0.159 µM | 16.4 µM | 0.639 µM | 26.5 µM | 0.113 µM | 11.5 µM | 0.777 µM | 4.63 µM | 0.84 µM | 2.09 µM | 0.0842 µM | 18.8 µM | 0.283 µM | 12.3 µM | 0.044 µM | 0.48 µM | 0.586 µM | 6.71 µM | 0.102 µM | 0.274 µM
13 | C[N+](C)(CCCCCC[N+](C)(C)CCCN1C(=O)c2cc3ccccc3cc2C1=O)CCCN1C(=O)c2cc3ccccc3cc2C1=O | > 37.5 µM | > 37.5 µM | > 37.5 µM | > 37.5 µM | > 37.5 µM | > 37.5 µM | > 37.5 µM | > 37.5 µM | > 37.5 µM | > 37.5 µM | > 37.5 µM | > 37.5 µM | > 37.5 µM | > 37.5 µM | > 37.5 µM | > 37.5 µM | > 37.5 µM | > 37.5 µM | > 37.5 µM | > 37.5 µM
